For one test, the target named is T1, JAK-2 (Homo sapiens, UniProt O60674).
T1 construct: contain the kinase domain (JH-1 domain) of the full length proteins and are used as GST fusion proteins
The experiment in a line: JAK kinase assay (JAK-2), time-resolved fluorescence energy transfer or radiometric filter-binding/flash plate. The format is biochemical. Conditions: GST fusion of JAK-2 kinase domain (JH-1). The procedure:
(§1) JAK-2 or JAK-3 enzymatic activity is determined using a time-resolved fluorescence energy transfer technology. The phosphorylation of a synthetic biotinylated peptide substrate (GGEEEYFELVKKKK) by either JAK-2 or JAK-3 in the presence of ATP is quantified using Europium labeled anti phosphotyrosine antibody and Streptavidin-Allophycocyanin Both JAK-2 and JAK-3 enzymes used in these assays contain the kinase domain (JH-1 domain) of the full length proteins and are used as GST fusion proteins.
(§2) Inhibitors are dissolved in DMSO. Dilutions are prepared in 90% DMSO followed by additional dilutions steps as required to perform a 8-point concentration-response.
(§3) The reaction mix consists of 5 μL of diluted compound, 10 μl of assay buffer and 5 μl of enzyme dilution. After incubation for 60 minutes at room temperature the reaction is stopped by the addition of EDTA. For detection of the product anti-phosphotyrosine antibody and Streptavidin-APC are added and after 60 minutes the samples are measured in an EnVision 2102 Multilabel Reader with excitation wavelength of 320 nm and emission at 665 nm. […] Membranes are counted after drying at ambient temperature, mounting in Packard TopCount 96-well frame, and addition of 10 μl/well of Microscint. The plates are eventually sealed and counted in a microplate scintillation counter (TopCount NXT, TopCount NXT HTS, PerkinElmer, Brussels, Belgium).

The target in the next test is T2, JAK-3 (Homo sapiens, UniProt P52333).
T2 construct: contain the kinase domain (JH-1 domain) of the full length proteins and are used as GST fusion proteins
In words: JAK kinase assay (JAK-3), time-resolved fluorescence energy transfer or radiometric filter-binding/flash plate. In kind it is biochemical. Conditions: GST fusion of JAK-3 kinase domain (JH-1). The procedure: as §1, §2, §3

Each structure is given as a SMILES string.

T1 sequence (O60674 849-1124 limits assumed, species assumed): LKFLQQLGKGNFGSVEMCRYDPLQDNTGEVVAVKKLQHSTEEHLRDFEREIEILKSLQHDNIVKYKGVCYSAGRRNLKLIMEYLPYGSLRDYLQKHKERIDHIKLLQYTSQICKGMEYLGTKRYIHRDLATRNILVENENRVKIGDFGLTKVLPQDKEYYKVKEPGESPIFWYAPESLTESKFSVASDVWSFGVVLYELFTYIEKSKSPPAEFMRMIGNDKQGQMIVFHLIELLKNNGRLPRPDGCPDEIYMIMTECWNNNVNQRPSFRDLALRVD
T2 sequence (P52333 822-1111 limits assumed, species assumed): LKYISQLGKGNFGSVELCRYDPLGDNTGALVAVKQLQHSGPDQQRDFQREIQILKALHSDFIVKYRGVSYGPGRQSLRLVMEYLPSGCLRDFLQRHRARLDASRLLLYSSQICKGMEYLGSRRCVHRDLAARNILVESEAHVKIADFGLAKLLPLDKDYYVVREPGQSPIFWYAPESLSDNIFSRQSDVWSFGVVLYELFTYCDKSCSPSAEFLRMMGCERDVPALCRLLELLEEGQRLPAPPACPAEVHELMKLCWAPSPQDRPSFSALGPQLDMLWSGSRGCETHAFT

`CNS(=O)(=O)c1ccccc1Nc1nc(Nc2cc(OC)ccc2F)ncc1C(N)=O` [Example 5, 2-(2-Fluoro-5-methoxy-phenylamino)-4-(2-methylsulfamoyl-phenylamino)-pyrimidine-5-carboxylic acid amide] returned a half-maximal inhibitory concentration (IC50) on JAK-2 of 179 nM.

`COc1ccc(F)c(Nc2ncc(C(N)=O)c(Nc3ccccc3N(C)S(C)(=O)=O)n2)c1` [Example 6, 2-(2-Fluoro-5-methoxy-phenylamino)-4-[2-(methanesulfonyl-methyl-amino)-phenylamino]-pyrimidine-5-carboxylic acid amide]: the IC50 on JAK-3 amounted to 26 nM.

For the origin of these results see patent US20100010025A1, “Pyrimidine Derivatives” (Norvartis AG, priority 2006, published 2010).
